# Measurements from US11105799B2, “Biomarkers of therapeutic responsiveness” (Meso Scale Technologies, LLC., priority 2009, dated 2021).
# Columns and labels:
# human 786-0 RCC cells [1] = assay: Tumor size of human 786-0 RCC xenografts in mice treated with sorafenib; assay type: in vivo; settings: tumor approximately 12 mm diameter at start
# Method: A panel of biomarkers was measured in RCC xenograft tissue extracts from mice. The mice were implanted with human 786-0 RCC cells and the cells were allowed to grow until a tumor of approximately 12 mm diameter was formed. The “Set A” group of mice received no drug treatment prior to removal of the xenograft tissue. The other two groups of mice—“Set C” and “Set D”—were treated with sorafenib prior to removal of the xenograft tissue. […] The “Set D” developed resistance to the drug and the tumor size increased to 16 mm in diameter during treatment.
# tumor vasculature = settings: xenograft studies; cited from earlier work
# human 786-0 RCC cells [2] = assay: Multiplex immunoassay of biomarker levels in RCC xenograft tissue extracts from mice; assay type: in vivo; settings: for AMPKa1 Total marker concentration +/- SD / AMPKa1 p174 marker concentration +/- SD / AMPKa1 p285 marker concentration +/- SD / Gsk3b Phospho marker concentration +/- SD / Gsk3b Total marker concentration +/- SD / Mek1/2 Phospho marker concentration +/- SD / Mek1/2 Total marker concentration +/- SD: 1 ug protein/well; for STAT3 Phospho marker concentration +/- SD: 2 ug protein/well; for Hif1a Total marker concentration +/- SD: 4 ug protein/well
# Method: A panel of biomarkers was measured in RCC xenograft tissue extracts from mice. The mice were implanted with human 786-0 RCC cells and the cells were allowed to grow until a tumor of approximately 12 mm diameter was formed. The “Set A” group of mice received no drug treatment prior to removal of the xenograft tissue.
# Multiplex immunoassay kits were used for detection of total and/or phosphorylated biomarkers (supplied by Meso Scale Diagnostics, LLC, Gaithersburg, Md.). Levels of each biomarker were determined by calibration of the assays with were either purified calibrator proteins or using control cell lysates from appropriately treated cultured cell lines (e.g., cells subjected to conditions known to induce or reduce levels of a specific biomarker). Calibration curves were derived by testing serial dilutions of the calibrator lysates or purified proteins. Levels of biomarkers in test samples were back-calculated from the calibration curves and were expressed in terms of wt. of protein per weight of tissue extract (for purified calibrators) or in terms of weight of crude control lysate protein per well (for lysate calibrators). Titrations of tumor extracts were carried out to determine the linearity of the assay response to sample dilution and to select the sample dilution that would be appropriate to use for each assay panel.
# In general, the assay format was as follows, with minor alterations for specific assay panels as indicated in the assay protocols provided with each assay kit (supplied by Meso Scale Diagnostics, LLC): (1) block MSD MULTI-SPOT® plate for 1 hour with appropriate MSD® blocking solution and wash; (2) add 25 μl assay diluent to each well, if specified; (3) add 25 μl calibrator, or sample (diluted as appropriate) to each well; (4) incubate with shaking for 1-3 hours (time as specified) and wash the well; (5) add 25 μl labeled detection antibody solution to each well; (6) incubate with shaking for 1-2 hours (time as specified) and wash the well; (7) add 150 μl MSD read buffer to each well; (8) read plate immediately on MSD SI6000 Reader (supplied by Meso Scale Diagnostics, LLC).
# GSK30 = settings: melanoma cells; cited from earlier work
# [3] = Tumor Group C (treated), sensitive to sorafenib, 0.5 ug total protein/well
# [4] = Tumor Group C (treated), sensitive to sorafenib
# [5] = Tumor Group C (treated), sensitive to sorafenib, 2.5 ug protein/well
# [6] = Tumor Group D (resistant), sorafenib treated, 0.5 ug total protein/well
# [7] = Tumor Group D (resistant), sorafenib treated
# [8] = Tumor Group D (resistant), sorafenib treated, 2.5 ug protein/well
structure (smiles),measurement,setting,value
CNC(=O)c1cc(Oc2ccc(NC(=O)Nc3ccc(Cl)c(C(F)(F)F)c3)cc2)ccn1 [sorafenib],tumor size,"human 786-0 RCC cells [1]; Set C, sensitive",tumor size decreased
same,tumor size (diameter) during treatment,"human 786-0 RCC cells [1]; Set D, developed resistance",16 mm
same,effect on tumor vasculature,tumor vasculature,reduction in tumor vasculature
same,Akt Phospho marker concentration +/- SD,human 786-0 RCC cells [2]; [3],348 +/− 85 ng calibrator lysate protein/w
same,Akt Total marker concentration +/- SD,human 786-0 RCC cells [2]; [3],142 +/− 43 ng calibrator lysate protein/w
same,Erk1/2 Phospho marker concentration +/- SD,human 786-0 RCC cells [2]; [3],102 +/− 45 ng calibrator lysate protein/w
same,Met Phospho marker concentration +/- SD,human 786-0 RCC cells [2]; [3],34 +/− 7 ng calibrator lysate protein/w
same,Met Total marker concentration +/- SD,human 786-0 RCC cells [2]; [3],850 +/− 375 ng calibrator lysate protein/w
same,p21 Total marker concentration +/- SD,human 786-0 RCC cells [2]; [3],1.1 +/− 0.3 pg/ug tumor protein
same,p38 Total marker concentration +/- SD,human 786-0 RCC cells [2]; [3],449 +/− 266 ng calibrator lysate protein/w
same,AMPKa1 Total marker concentration +/- SD,human 786-0 RCC cells [2]; [4],29 +/− 13 pg/ug tumor protein
same,AMPKa1 p174 marker concentration +/- SD,human 786-0 RCC cells [2]; [4],7.3 +/− 4.4 pg/ug tumor protein
same,AMPKa1 p285 marker concentration +/- SD,human 786-0 RCC cells [2]; [4],29 +/− 15 pg/ug tumor protein
same,Gsk3b Phospho marker concentration +/- SD,human 786-0 RCC cells [2]; [4],1188 +/− 446 ng calibrator lysate protein/w
same,Gsk3b Total marker concentration +/- SD,human 786-0 RCC cells [2]; [4],3771 +/− 1491 ng calibrator lysate protein/w
same,Mek1/2 Phospho marker concentration +/- SD,human 786-0 RCC cells [2]; [4],116 +/− 21 ng calibrator lysate protein/w
same,Mek1/2 Total marker concentration +/- SD,human 786-0 RCC cells [2]; [4],350 +/− 90 ng calibrator lysate protein/w
same,STAT3 Phospho marker concentration +/- SD,human 786-0 RCC cells [2]; [4],65 +/− 16 ng calibrator lysate protein/w
same,Jnk Phospho marker concentration +/- SD,human 786-0 RCC cells [2]; [5],74 +/− 29 ng calibrator lysate protein/w
same,Jnk Total marker concentration +/- SD,human 786-0 RCC cells [2]; [5],983 +/− 356 ng calibrator lysate protein/w
same,PlGF Total marker concentration +/- SD,human 786-0 RCC cells [2]; [5],0.083 +/− 0.031 pg/ug tumor protein
same,VEGFR-1 Total marker concentration +/- SD,human 786-0 RCC cells [2]; [5],0.26 +/− 0.08 pg/ug tumor protein
same,bFGF Total marker concentration +/- SD,human 786-0 RCC cells [2]; [5],2.1 +/− 0.6 pg/ug tumor protein
same,Hif1a Total marker concentration +/- SD,human 786-0 RCC cells [2]; [4],19 +/− 3 ng calibrator lysate protein/w
same,Akt Phospho marker concentration +/- SD,human 786-0 RCC cells [2]; [6],354 +/− 84 ng calibrator lysate protein/w
same,Akt Total marker concentration +/- SD,human 786-0 RCC cells [2]; [6],93 +/− 25 ng calibrator lysate protein/w
same,Erk1/2 Phospho marker concentration +/- SD,human 786-0 RCC cells [2]; [6],206 +/− 103 ng calibrator lysate protein/w
same,Erk1/2 Total marker concentration +/- SD,human 786-0 RCC cells [2]; [6],486 +/− 306 ng calibrator lysate protein/w
same,Met Phospho marker concentration +/- SD,human 786-0 RCC cells [2]; [6],41 +/− 6 ng calibrator lysate protein/w
same,Met Total marker concentration +/- SD,human 786-0 RCC cells [2]; [6],595 +/− 137 ng calibrator lysate protein/w
same,p21 Total marker concentration +/- SD,human 786-0 RCC cells [2]; [6],2.2 +/− 0.9 pg/ug tumor protein
same,p38 Total marker concentration +/- SD,human 786-0 RCC cells [2]; [6],428 +/− 227 ng calibrator lysate protein/w
same,AMPKa1 Total marker concentration +/- SD,human 786-0 RCC cells [2]; [7],26 +/− 10 pg/ug tumor protein
same,AMPKa1 p174 marker concentration +/- SD,human 786-0 RCC cells [2]; [7],3.8 +/− 0.9 pg/ug tumor protein
same,AMPKa1 p285 marker concentration +/- SD,human 786-0 RCC cells [2]; [7],19 +/− 5 pg/ug tumor protein
same,Gsk3b Phospho marker concentration +/- SD,human 786-0 RCC cells [2]; [7],1474 +/− 294 ng calibrator lysate protein/w
same,Gsk3b Total marker concentration +/- SD,human 786-0 RCC cells [2]; [7],3829 +/− 1058 ng calibrator lysate protein/w
same,Mek1/2 Phospho marker concentration +/- SD,human 786-0 RCC cells [2]; [7],113 +/− 24 ng calibrator lysate protein/w
same,Mek1/2 Total marker concentration +/- SD,human 786-0 RCC cells [2]; [7],359 +/− 103 ng calibrator lysate protein/w
same,STAT3 Phospho marker concentration +/- SD,human 786-0 RCC cells [2]; [7],41 +/− 10 ng calibrator lysate protein/w
same,Jnk Phospho marker concentration +/- SD,human 786-0 RCC cells [2]; [8],110 +/− 22 ng calibrator lysate protein/w
same,Jnk Total marker concentration +/- SD,human 786-0 RCC cells [2]; [8],878 +/− 231 ng calibrator lysate protein/w
same,PlGF Total marker concentration +/- SD,human 786-0 RCC cells [2]; [8],0.144 +/− 0.073 pg/ug tumor protein
same,VEGF Total marker concentration +/- SD,human 786-0 RCC cells [2]; [8],26 +/− 15 pg/ug tumor protein
same,VEGFR-1 Total marker concentration +/- SD,human 786-0 RCC cells [2]; [8],0.39 +/− 0.14 pg/ug tumor protein
same,bFGF Total marker concentration +/- SD,human 786-0 RCC cells [2]; [8],2.6 +/− 1.3 pg/ug tumor protein
same,Hif1a Total marker concentration +/- SD,human 786-0 RCC cells [2]; [7],14 +/− 3 ng calibrator lysate protein/w
same,effect on GSK3β activity,GSK30,activates GSK30
